Reference: patent US9068170B2, “Generation of pluripotent stem cells using recombinant proteins” (THE SCRIPPS RESEARCH INSTITUTE, priority 2008, dated 2015)
Entries after “also recorded” stand apart in the source; their conditions may differ.

Key:
[1] = test system: mouse fibroblast cells treated with exogenous Oct4/Sox2/Klf4/Myc polypeptides; assay: Oct4-positive colonies from an intermediate iPSC clone after small molecule treatment (Example 3, FIG. 5); type: cell-based; details: combined treatment 0.5 μM PD0325901, 3 μM CHIR99021, 0.5 μM A-83-01, counted 2 weeks after treatment
Experimental: FIG. 5. […] A comparison of the number of Oct4^+ iPS cell colonies generated from mouse fibroblast cells treated with exogenous Oct4/Sox2/Klf4/Myc polypeptides, and with or without 0.5 μM PD0325901, 3 μM CHIR99021, and 0.5 μM A-83-01. Y-axis represents percentage of Oct4′ colonies within total number of colonies.
We tested the TGFβ receptor inhibitor (A-83-01), MEK inhibitor (PD0325901) and GSK-3 inhibitor (CHIR99021), on mouse fibroblast cells that were treated with exogenous Oct4, Klf4, Sox2 and c-Myc polypeptides, for their effects on reprogramming kinetics and efficiency.
Mouse fibroblasts were grown in mESC growth medium [Knockout DMEM (Invitrogen) supplemented with 10% ES-FBS+10% KSR, 0.1 mM 2-ME, 1% Glutamax, 1% Non-essential amino acids, 1% EmbryoMax ESC Qualified Nucleosides (Millipore), and 10^3 units/ml LIF (ESGRO, Chemicon International)] supplemented with 8 μg/ml of Oct4/Sox2/Klf4/Myc (all four transcription factors are tagged with poly-Arg […]; SEQ ID NO:2) for 4-12 hours, followed by culturing the cells in the absence of the Oct4/Sox2/Klf4/Myc polypeptides for one day. This procedure was repeated 4 times. The cells were then cultured in mESC medium for another two weeks. iPSC clones were detected by colony morphology and expression of pluripotency markers. An intermediate iPSC clone, which expresses ALP but not Oct4 (Oct4), was dissociated with Trypsin-EDTA. The clone was then expanded by continuous culturing with regular mESC medium or medium supplemented with 0.5 μM PD0325901, 3 μM CHIR99021, 0.5 μM A-83-01. The number of Oct4-positive colonies were counted 2 weeks after small molecule treatment (FIG. 5).

[2] = test system: cellular reprogramming; assay: Enhancement of cellular reprogramming by nuclear receptor ligands; type: cell-based
[3] = test system: Mouse fibroblasts; assay: Induction of pluripotency in mouse fibroblasts by intermittent incubation with poly-Arg transcription factor proteins (Example 1); type: cell-based; details: added and/or combined during protein treatment of mouse fibroblasts
Experimental: Mouse fibroblasts were grown in mESC medium supplemented with 8 μg/ml of either Oct4/Sox2/Klf4 or Oct4/Sox2/Klf4/Myc (all proteins comprising poly-Arg as described above) for 6-8 hours, washed, and incubated for 2-3 days in mESC media without the above-listed transcription factors. This (4-12 hours with, 1-3 days without) was repeated a number (1, 2, 3, 4, or more) of times and then the cells were cultures in mESC for two weeks.

[4] = test system: reprogramming efficiency; details: HDAC inhibitor; Huangfu et al. 2008a; cited from earlier work

| Structure (SMILES) | effect on reprogramming efficiency and kinetics / iPSC generation (Oct4-positive colonies) [1] | effect on efficiency and speed of development of pluripotent cells [3] | also measured |
| --- | --- | --- | --- |
| Cc1cccc(-c2nn(C(=S)Nc3ccccc3)cc2-c2ccnc3ccccc23)n1 [A-83-01, 3-(6-Methyl-2-pyridinyl)-N-phenyl-4-(4-quinolinyl)-1H-pyrazole-1-carbothioamide] | increases reprogramming efficiency and accelerates reprogramming kinetics; also recorded: enhanced iPSC generation | – | – |
| C=C(c1ccc(C(=O)O)cc1)c1cc2c(cc1C)C(C)(C)CCC2(C)C [Bexarotene] | – | – | effect on cellular reprogramming ([2]; 3 μM): can enhance cellular reprogramming |
| Cc1c[nH]c(-c2cnc(NCCNc3ccc(C#N)cn3)nc2-c2ccc(Cl)cc2Cl)n1 [CHIR99021] | increases reprogramming efficiency and accelerates reprogramming kinetics; also recorded: enhanced iPSC generation | improved efficiency and speed of development of pluripotent cells | – |
| CC(C)C[C@H](NC(=O)OCC1c2ccccc2-c2ccccc21)C(=O)O [Fmoc-Leu] | – | – | effect on cellular reprogramming ([2]; 5 μM): can enhance cellular reprogramming |
| O=C(NOC[C@H](O)CO)c1ccc(F)c(F)c1Nc1ccc(I)cc1F [PD0325901] | increases reprogramming efficiency and accelerates reprogramming kinetics | improved efficiency and speed of development of pluripotent cells | effect on reprogramming efficiency and kinetics / iPSC generation (Oct4-positive colonies) ([1]; listed as PD0320501): enhanced iPSC generation |
| NC(=O)c1ccc(-c2nc(-c3ccc4c(c3)OCO4)c(-c3ccccn3)[nH]2)cc1 [SB431542] | – | improved efficiency and speed of development of pluripotent cells | – |
| CCCC(CCC)C(=O)O [valproic acid] | – | – | effect on reprogramming efficiency [4]: can significantly improve the reprogramming efficiency |
